Assay results taken from patent publication US12077503B2, “Substituted cyclic amides and their use as herbicides” (FMC CORPORATION, priority 2015, dated 2024).

Assays:
Format in all cases: in vivo
Kochia (Kochia scoparia) [1] = test: Test A preemergence; settings: Preemergence; for Plant response rating, Kochia: 125 g ai/ha, visual injury after approximately 10 d, 0 to 100 scale where 0 is no effect and 100 is complete control; for Kochia plant response rating (0 to 100 scale, 0 is no effect, 100 is complete control): 500 g ai/ha, visual injury approx. 10 d
Text: (§1) Seeds of plant species selected from barnyardgrass (Echinochloa crus-galli), Kochia (Kochia scoparia), ragweed (common ragweed, Ambrosia elatior), ryegrass, Italian (Italian ryegrass, Lolium multiflorum), crabgrass, large (Digitaria sanguinalis), giant foxtail (Setaria faberii), green foxtail (Setaria viridis), morningglory (Ipomoea spp.), pigweed (Amaranthus retroflexus), velvetleaf (Abutilon theophrasti), wheat (Triticum aestivum), and corn (Zea mays) were planted into a blend of loam soil and sand and treated preemergence with a directed soil spray using test chemicals formulated in anon-phytotoxic solvent mixture which included a surfactant.
(§2) At the same time, plants selected from these crop and weed species and also blackgrass (Alopecurus myosuroides), and Galium (catchweed bedstraw, Galium aparine) were planted in pots containing the same blend of loam soil and sand and treated with postemergence applications of test chemicals formulated in the same manner. Plants ranged in height from 2 to 10 cm and were in the one- to two-leaf stage for the postemergence treatment. Treated plants and untreated controls were maintained in a greenhouse for approximately 10 d, after which time all treated plants were compared to untreated controls and visually evaluated for injury. Plant response ratings, summarized in Table A, are based on a 0 to 100 scale where 0 is no effect and 100 is complete control. A dash (-) response means no test result.

[2] = system: barnyardgrass (Echinochloa crus-galli); test: Test A preemergence; settings: Preemergence; for Plant response rating, Barnyardgrass: 125 g ai/ha, visual injury after approximately 10 d, 0 to 100 scale where 0 is no effect and 100 is complete control; for Barnyardgrass plant response rating (0 to 100 scale, 0 is no effect, 100 is complete control): 500 g ai/ha, visual injury approx. 10 d
Text: as §1, §2

[3] = system: giant foxtail (Setaria faberii); test: Test A preemergence; settings: Preemergence; for Plant response rating, Foxtail, Giant: 125 g ai/ha, visual injury after approximately 10 d, 0 to 100 scale where 0 is no effect and 100 is complete control; for Foxtail, Giant plant response rating (0 to 100 scale, 0 is no effect, 100 is complete control): 500 g ai/ha, visual injury approx. 10 d
Text: as §1, §2

[4] = system: pigweed (Amaranthus retroflexus); test: Test A preemergence; settings: Preemergence; for Plant response rating, Pigweed: 125 g ai/ha, visual injury after approximately 10 d, 0 to 100 scale where 0 is no effect and 100 is complete control; for Pigweed plant response rating (0 to 100 scale, 0 is no effect, 100 is complete control): 500 g ai/ha, visual injury approx. 10 d
Text: as §1, §2

[5] = system: ragweed (common ragweed, Ambrosia elatior); test: Test A preemergence; settings: Preemergence; for Plant response rating, Ragweed: 125 g ai/ha, visual injury after approximately 10 d, 0 to 100 scale where 0 is no effect and 100 is complete control; for Ragweed plant response rating (0 to 100 scale, 0 is no effect, 100 is complete control): 500 g ai/ha, visual injury approx. 10 d
Text: as §1, §2

[6] = system: ryegrass, Italian (Italian ryegrass, Lolium multiflorum); test: Test A preemergence; settings: Preemergence; for Plant response rating, Ryegrass, Italian: 125 g ai/ha, visual injury after approximately 10 d, 0 to 100 scale where 0 is no effect and 100 is complete control; for Ryegrass, Italian plant response rating (0 to 100 scale, 0 is no effect, 100 is complete control): 500 g ai/ha, visual injury approx. 10 d
Text: as §1, §2

[7] = system: Galium (catchweed bedstraw, Galium aparine); test: Test A postemergence
Text: as §1, §2

Kochia (Kochia scoparia) [8] = test: Test A postemergence
Text: as §1, §2

[9] = system: barnyardgrass (Echinochloa crus-galli); test: Test A postemergence
Text: as §1, §2

[10] = system: blackgrass (Alopecurus myosuroides); test: Test A postemergence
Text: as §1, §2

corn (Zea mays) = test: Test A postemergence
Text: as §1, §2

[11] = system: giant foxtail (Setaria faberii); test: Test A postemergence
Text: as §1, §2

[12] = system: pigweed (Amaranthus retroflexus); test: Test A postemergence
Text: as §1, §2

[13] = system: ragweed (common ragweed, Ambrosia elatior); test: Test A postemergence
Text: as §1, §2

[14] = system: ryegrass, Italian (Italian ryegrass, Lolium multiflorum); test: Test A postemergence
Text: as §1, §2

[15] = system: wheat (Triticum aestivum); test: Test A postemergence
Text: as §1, §2

[16] = 125 g ai/ha, postemergence, visual rating after approx. 10 d, 0 to 100 scale (0 no effect, 100 complete control)
[17] = Postemergence, 500 g ai/ha, 0 to 100 scale where 0 is no effect and 100 is complete control
[18] = 125 g ai/ha, postemergence, visual injury rating on 0 to 100 scale (0 no effect, 100 complete control), approx. 10 d

SMILES	Plant response rating, Kochia (Kochia (Kochia scoparia) [1])	Kochia plant response rating (0 to 100 scale, 0 is no effect, 100 is complete control) (Kochia (Kochia scoparia) [1])	Plant response rating, Barnyardgrass [2]	Barnyardgrass plant response rating (0 to 100 scale, 0 is no effect, 100 is complete control) [2]	Plant response rating, Foxtail, Giant [3]	Foxtail, Giant plant response rating (0 to 100 scale, 0 is no effect, 100 is complete control) [3]	Plant response rating, Pigweed [4]	Pigweed plant response rating (0 to 100 scale, 0 is no effect, 100 is complete control) [4]	Plant response rating, Ragweed [5]	Ragweed plant response rating (0 to 100 scale, 0 is no effect, 100 is complete control) [5]	Plant response rating, Ryegrass, Italian [6]	Ryegrass, Italian plant response rating (0 to 100 scale, 0 is no effect, 100 is complete control) [6]	Plant response rating, Galium [7, 16]	Plant response rating, Galium [7, 17]	Plant response rating, Kochia (Kochia (Kochia scoparia) [8]; [16])	Plant response rating, Kochia (Kochia (Kochia scoparia) [8]; [17])	Plant response rating, Barnyardgrass [9, 17]	Plant response rating, Blackgrass [10, 17]	Plant response rating, Corn (corn (Zea mays); [16])	Plant response rating, Corn (corn (Zea mays); [17])	also measured
O=C(Nc1cccc(F)c1F)C1C(=O)N(C2C=CCCC2)CC1c1cccc(C(F)(F)F)c1 (stereo not shown) [Compound 525]	0	0	30	50	30	70	0	0	0	0	0	0	0	0	0	0	40	30	0	0	Barnyardgrass plant response rating [9, 18]: 40; Blackgrass plant response rating [10, 18]: 0; Plant response rating, Foxtail, Giant [11, 16]: 20; Plant response rating, Foxtail, Giant [11, 17]: 60; Plant response rating, Pigweed [12, 16]: 0; Plant response rating, Pigweed [12, 17]: 0; Plant response rating, Ragweed [13, 16]: 0; Plant response rating, Ragweed [13, 17]: 0; Plant response rating, Ryegrass, Italian [14, 16]: 0; Plant response rating, Ryegrass, Italian [14, 17]: 0; Plant response rating, Wheat [15, 16]: 0; Plant response rating, Wheat [15, 17]: 0
Cc1ccc(C2CN(C)C(=O)C2C(=O)Nc2ccccc2S(C)(=O)=O)c(F)c1 (stereo not shown) [Compound 558]	70	80	90	100	90	100	30	70	50	70	0	60	30	60	20	70	100	60	0	20	Plant response rating, Barnyardgrass [9, 16]: 80; Plant response rating, Blackgrass [10, 16]: 20; Plant response rating, Foxtail, Giant [11, 16]: 70; Plant response rating, Foxtail, Giant [11, 17]: 90; Plant response rating, Pigweed [12, 16]: 0; Plant response rating, Pigweed [12, 17]: 0; Plant response rating, Ragweed [13, 16]: 0; Plant response rating, Ragweed [13, 17]: 40; Plant response rating, Ryegrass, Italian [14, 16]: 0; Plant response rating, Ryegrass, Italian [14, 17]: 40; Plant response rating, Wheat [15, 16]: 0; Plant response rating, Wheat [15, 17]: 40
